Data set [1] in a line: Solubility of oxaprozin and its salts. In kind it is physicochemical.
Another data set is described as follows: Light sensitivity. In kind it is physicochemical.

Each structure is given as a SMILES string. Where a name gives a salt, the structure may show the parent alone. Read-outs that look alike come from different tables or passages of the source.

Take `O=C(O)CCc1nc(-c2ccccc2)c(-c2ccccc2)o1` [TRIS salt of oxaprozin, 4,5-diphenyl-2-oxazolepropanoic acid, tris(hydroxymethyl)aminomethanesalt]: the solubility (in general, how much of the substance goes into solution per volume) in data set [1] was 380 mg/mL.
For the compound `O=C([O-])CCc1nc(-c2ccccc2)c(-c2ccccc2)o1.[K+]` [potassium salt of oxaprozin, 4,5-diphenyl-2-oxazolepropanoic acid, potassium salt], the solubility in data set [1] (read-out: Solubility) came to 370 mg/mL. Moreover, the Photosensitivity entry in “Light sensitivity” is reported as “photosensitive material”.
In the case of `O=C([O-])CCc1nc(-c2ccccc2)c(-c2ccccc2)o1.[Na+]` [sodium salt of oxaprozin, 4,5-diphenyl-2-oxazolepropanoic acid, sodium salt], the solubility in data set [1] (read-out: Solubility) came to 260 mg/mL.
`O=C(O)CCc1nc(-c2ccccc2)c(-c2ccccc2)o1` [oxaprozin, 4,5-diphenyl-2-oxazolepropionic acid]: the solubility in data set [1] is 1.7 mg/mL.

The values are drawn from US6030643A, “Potassium, sodium and tris oxaprozin salt pharmaceutical formulations” (priority 1997, dated 2000).
